Assay results: US20260085101A1, “NOVEL PLATELET DERIVED GROWTH FACTOR PEPTIDE MIMETIC” (THE UNIVERSITY OF SYDNEY, priority 2022, published 2026)

What was measured:
Assay type in all cases: cell-based
[1] = system: primary human coronary artery endothelial cells (HCAECs); assay: Vascular tube forming assay on Geltrex; conditions: 24 hours; for tube length: 50 ng/ml PDGF, 5 μg/ml JC5, 10 μM AG1296, mean (±SD); for increased tube length compared to the negative control (Mean Diff.): vs AG1296+PDGF−AB (307.7 μm); for increased tube length compared to the no treatment control (Mean Diff.): vs no treatment control (305 μm)
Experimental: FIG. 4. Tube formation of Human Coronary Artery Endothelial Cells Treated with PDGF and PDGF Mimetic Peptide JC5. Human coronary artery endothelial cells treated with 50 ng/ml of PDGF−AB and PDGF−BB produced longer tubes than untreated cells and cells treated with the PDGF receptor inhibitor AG1296+PDGF−AB. […] Error bars represent ±SD, n=3/group.
PDGF has a well-established role in angiogenesis in vivo. To simulate this function in vitro a vascular tube forming assay on primary human coronary artery endothelial cells (HCAECs) was carried out. Cells were seeded on top of 3D growth factor reduced Geltrex basement membrane extract and incubated for 24 hours following treatment with the PDGF−AB, PDGF-BB, no treatment control, AG1296+PDGF−AB negative control, and peptides JC5 and JC5a. Over the course of 24 hours the cells form tubes throughout the gel. PDGF is reported to facilitate tube formation of endothelial cells in in vitro 3D assays.
Cells treated with 50 ng/ml of PDGF−AB, PDGF-BB, and 5 μg/ml of JC5 produced longer more uniform tubes than untreated cells and cells treated with the negative control 10 μM PDGF receptor inhibitor AG1296 co-treated with 50 ng/ml PDGF−AB (FIG. 4). The positive controls PDGF−AB and PDGF−BB produced tubes that were 560.7 μm (±53.93) and 616.3 μm (±39.07), respectively. […] The no treatment control and AG1296+PDGF−AB negative control produced tubes that were 305 μm and 307.7 μm, respectively. […] In summary, JC5 has similar vascular tube forming ability to recombinant human PDGF−AB and PDGF-BB.

[2] = target: T1, PDGF receptor (Mus musculus, UniProt P05622); assay: Western blot for phosphorylation of ERK in C2C12 cells (PDGF receptor activation); conditions: for phosphorylation of ERK (pERK): 10 ng/ml PDGF, 1 μg/ml peptide, vs no treatment and AG1296+PDGF−AB controls
T1 construct: Phosphorylation of ERK following treatment of C2C12 Cells with PDGF and JC5; endogenous in cells; host or cells: C2C12 mouse myoblasts
T1 sequence (P05622 32-1098): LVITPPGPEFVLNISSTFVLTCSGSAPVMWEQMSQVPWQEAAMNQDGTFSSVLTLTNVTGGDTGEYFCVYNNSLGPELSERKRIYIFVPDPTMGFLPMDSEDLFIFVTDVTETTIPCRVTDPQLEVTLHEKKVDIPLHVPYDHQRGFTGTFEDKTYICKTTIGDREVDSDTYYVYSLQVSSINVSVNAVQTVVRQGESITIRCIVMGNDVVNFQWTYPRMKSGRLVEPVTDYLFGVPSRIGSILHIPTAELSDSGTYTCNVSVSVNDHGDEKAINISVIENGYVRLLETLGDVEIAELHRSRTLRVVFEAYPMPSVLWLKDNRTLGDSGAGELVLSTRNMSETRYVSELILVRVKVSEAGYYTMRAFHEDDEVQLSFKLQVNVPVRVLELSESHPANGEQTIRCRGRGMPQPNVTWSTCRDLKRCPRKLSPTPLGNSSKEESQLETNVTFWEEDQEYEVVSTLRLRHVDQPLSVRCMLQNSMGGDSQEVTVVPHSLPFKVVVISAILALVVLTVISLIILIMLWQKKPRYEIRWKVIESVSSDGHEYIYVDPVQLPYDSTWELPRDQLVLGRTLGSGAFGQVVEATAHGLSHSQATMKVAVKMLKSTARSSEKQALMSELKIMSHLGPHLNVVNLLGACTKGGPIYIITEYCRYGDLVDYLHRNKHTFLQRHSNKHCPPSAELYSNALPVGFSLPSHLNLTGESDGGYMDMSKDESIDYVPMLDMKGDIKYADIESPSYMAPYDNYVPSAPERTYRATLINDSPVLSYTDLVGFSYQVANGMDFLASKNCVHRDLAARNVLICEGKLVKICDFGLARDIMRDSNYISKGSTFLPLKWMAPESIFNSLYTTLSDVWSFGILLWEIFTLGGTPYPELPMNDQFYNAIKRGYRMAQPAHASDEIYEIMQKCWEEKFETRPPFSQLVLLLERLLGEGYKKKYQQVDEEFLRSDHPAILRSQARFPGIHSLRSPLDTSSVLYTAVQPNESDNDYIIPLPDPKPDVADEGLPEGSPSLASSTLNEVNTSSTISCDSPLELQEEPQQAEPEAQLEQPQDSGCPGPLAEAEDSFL
Experimental: FIG. 5. Phosphorylation of ERK following treatment of C2C12 Cells with PDGF and JC5. Western blots for total (ERK) and phosphorylated ERK (pERK) at 42 and 44 kDa show an increase in phosphorylation following treatment with 10 ng/ml PDGF−BB and 1 μg/ml of JC5. FIG. 6. Phosphorylation of ERK following treatment of C2C12 Cells with PDGF and JC5a. Western blots for total (ERK) and phosphorylated ERK (pERK) at 42 and 44 kDa show an increase in phosphorylation 10 minutes post treatment with 10 ng/ml PDGF−BB and 1 μg/ml of novel mimetic peptide JC5a. JC5a maintained this increased phosphorylation of ERK at 30 minutes post treatment. PDGF receptor activation takes place via autophosphorylation of tyrosine […] residues at key sites throughout the intracellular domain. Autophosphorylation engages different signaling pathways, including ERK (MAPK) which participates in proliferation, cell survival, angiogenesis, and chemotactic activity of cells. Phosphorylation of ERK indicates successful activation of the PDGF receptor.

[3] = system: C2C12 mouse myoblasts; assay: Scratch migration (chemotaxis) assay on C2C12 cells; conditions: for migration of cells across the scratch: 24 hours at 37° C., 10 ng/ml PDGF, 1 μg/ml peptides, mean (±SD); for increase in migration compared to the negative control (Mean Diff) / increase in migration compared to the no treatment control (Mean Diff.): 24 hours; for increase in migration compared to the negative control (Mean Diff): vs AG1296+PDGF−AB negative control; for increase in migration compared to the no treatment control (Mean Diff.): vs no treatment control
Experimental: FIG. 2. Migration of C2C12 Mouse […] Cells Treated with PDGF and peptides JC5 and JC5a. C2C12 mouse fibroblast cells migrate across the scratch over 24 hours. Cells were treated with 10 ng/ml PDGF−AB (n=6), PDGF−BB (n=6), and 1 μg/ml of novel PDGF mimetic JC5 (n=6) and JC5a (n=3). […] There was also no statistically significant difference between the PDGF mimetic peptides and PDGF−AB and −BB positive controls. Error bars represent ±SD. The function of Compounds Ia (also referred to herein as JC5) and Ib (also referred to herein as JC5a) has been tested in vitro on the continuous cell line, C2C12 mouse myoblasts. In these in vitro assays recombinant PDGF−AB and −BB have been used as positive controls along with a serum starved no treatment control and the PDGF receptor inhibitor AG1296 co-treated with PDGF−AB as a negative control. The in vitro assays were designed to assess the major known functions of PDGF whilst also considering functions that are relevant to its in vivo applications. These functions were chemotaxis, collagen contraction, vascular tube formation and activation of the PDGF receptors via phosphorylation of Akt and Erk. Chemotaxis was assessed by making a scratch through a 2D culture of C2C12 cells following treatment with the four controls and the peptides JC5 and JC5a. They were then incubated for 24 hours at 37° C. Migration of the cells across the scratch at the conclusion of the incubation was measured and compared to the relevant controls described above. PDGF is a well-established mediator of chemotaxis and is expected to increase migration of the cells across the scratch over the course of 24 hours post treatment.

Row | phosphorylation of ERK (pERK) at 30 minutes post treatment ([2]; 1 μg/ml JC5a, 30 minutes) | Molecule | tube length [1] | increased tube length compared to the negative control (Mean Diff.) [1] | increased tube length compared to the no treatment control (Mean Diff.) [1] | phosphorylation of ERK (pERK) [2] | migration of cells across the scratch [3] | increase in migration compared to the negative control (Mean Diff) [3] | increase in migration compared to the no treatment control (Mean Diff.) [3]
1 |  | PDGF−AB: recombinant human PDGF−AB, AB heterodimer of recombinant PDGF, positive control | 560.7 μm | 253 μm | 255.7 μm | pERK is induced by PDGF−BB but not PDGF−AB |  |  | 
2 |  | PDGF Loop III dimer HSA (CVRKIEIVRKK)2(Peg3)2EYEK(Palm)EYE-C′ [JC5] | 591.3 μm | 283.7 μm | 286.3 μm | phosphorylation of ERK (pERK) can be seen | 68.28% | 51.71% | 47.96%
3 | preserved phosphorylation of ERK (pERK) | CCCCCCCCCCCCCCCC(=O)NCCCC[C@H](NC(=O)[C@H](CCC(=O)O)NC(=O)[C@H](Cc1ccc(O)cc1)NC(=O)[C@@H](CCC(=O)O)NC(=O)CCOCCOCCOCCNC(=O)CCOCCOCCOCCNC(=O)[C@@H](CCCCN)NC(=O)[C@@H](CCCCN)NC(=O)[C@@H](CCCNC(=N)N)NC(=O)[C@@H](NC(=O)[C@@H](NC(=O)[C@H](CCC(=O)O)NC(=O)[C@@H](NC(=O)[C@H](CCCCN)NC(=O)[C@@H](CCCNC(=N)N)NC(=O)[C@H](NC(=O)[C@H](N)CSSC[C@@H](N)C(=O)N[C@@H](C(=O)N[C@H](CCCNC(=N)N)C(=O)N[C@@H](CCCCN)C(=O)N[C@H](C(=O)N[C@@H](CCC(=O)O)C(=O)N[C@H](C(=O)N[C@H](C(=O)N[C@H](CCCNC(=N)N)C(=O)N[C@H](CCCCN)C(=O)N[C@H](CCCCN)C(=O)NCCOCCOCCOCCC(=O)NCCOCCOCCOCCC(=O)N[C@H](CCC(=O)O)C(=O)N[C@@H](Cc1ccc(O)cc1)C(=O)N[C@@H](CCC(=O)O)C(=O)N[C@@H](CCCCNC(=O)CCCCCCCCCCCCCCC)C(=O)N[C@@H](CCC(=O)O)C(=O)N[C@@H](Cc1ccc(O)cc1)C(=O)N[C@@H](CCC(=O)O)C(N)=O)C(C)C)[C@H](C)CC)[C@@H](C)CC)C(C)C)C(C)C)[C@@H](C)CC)[C@H](C)CC)C(C)C)C(=O)N[C@@H](CCC(=O)O)C(=O)N[C@@H](Cc1ccc(O)cc1)C(=O)N[C@@H](CCC(=O)O)C(N)=O [JC5a, PDGF Loop III dimer USA dimer (CVRKIEIVRKK)2(Peg3)2(EYEK(Palm)EYE)2-C′] |  |  |  | phosphorylation of ERK (pERK) can be seen | 79.88% | 62.71% | 59.56%
